In patent US10710978B2, “STK4 inhibitors for treatment of hematologic malignancies” (Dana-Farber Cancer Institute, Inc., priority 2015, dated 2020):
Read-outs that look alike come from different tables or passages of the source.

Key:
Test in all cases: KiNativ assay
Assay type in all cases: binding
[1] = molecular target: SNRK (Homo sapiens (Human), UniProt Q9NRH2); conditions: H929 live cell
Protocol: (§1) Biochemical IC50s of the compounds of the present disclosure against various kinases were measured in a KiNativ assay. Compounds were screened in duplicate at 10 μM in H929 live cell. IC50 was measured via Mass spectroscopy (MS).

[2] = molecular target: PKCz (Homo sapiens (Human), UniProt Q05513); conditions: H929 live cell
Protocol: as §1

[3] = molecular target: eEF2K (Homo sapiens (Human), UniProt O00418); conditions: H929 live cell
Protocol: as §1

[4] = molecular target: MPSK1 (Homo sapiens (Human), UniProt O75716); conditions: H929 live cell
Protocol: as §1

[5] = system: AurA, AurB, AurC; conditions: H929 live cell; for % inhibition: 10 μM, range class
Protocol: as §1

[6] = molecular target: CK1g3 (Homo sapiens (Human), UniProt Q9Y6M4); conditions: H929 live cell
Protocol: as §1

[7] = molecular target: EphB2 (Homo sapiens (Human), UniProt P29323); conditions: H929 live cell
Protocol: as §1

[8] = molecular target: CHK1 (Homo sapiens (Human), UniProt O14757); conditions: H929 live cell
Protocol: as §1

[9] = molecular target: BRAF (Homo sapiens (Human), UniProt P15056); conditions: H929 live cell
Protocol: as §1

[10] = molecular target: RSK1 domain2 (Homo sapiens (Human), UniProt Q15418); conditions: H929 live cell
Protocol: as §1

[11] = molecular target: LOK (Homo sapiens (Human), UniProt O94804); conditions: H929 live cell
Protocol: as §1

[12] = molecular target: NEK3 (Homo sapiens (Human), UniProt P51956); conditions: H929 live cell
Protocol: as §1

[13] = molecular target: LYN (Homo sapiens (Human), UniProt P07948); conditions: H929 live cell
Protocol: as §1

[14] = molecular target: IKKa (Homo sapiens (Human), UniProt O15111); conditions: H929 live cell
Protocol: as §1

[15] = molecular target: PKR (Homo sapiens (Human), UniProt P19525); conditions: H929 live cell
Protocol: as §1

[16] = molecular target: BARK1 (Homo sapiens (Human), UniProt P25098); conditions: H929 live cell
Protocol: as §1

[17] = system: MAPKAPK2, MAPKAPK3; conditions: H929 live cell; for % inhibition: 10 μM, range class
Protocol: as §1

[18] = molecular target: TBK1 (Homo sapiens (Human), UniProt Q9UHD2); conditions: H929 live cell
Protocol: as §1

[19] = molecular target: PIP4K2A (Homo sapiens (Human), UniProt P48426); conditions: H929 live cell
Protocol: as §1

[20] = molecular target: SGK3 (Homo sapiens (Human), UniProt Q96BR1); conditions: H929 live cell
Protocol: as §1

[21] = molecular target: FER (Homo sapiens (Human), UniProt P16591); conditions: H929 live cell
Protocol: as §1

[22] = molecular target: CDC2 (Homo sapiens (Human), UniProt P06493); conditions: H929 live cell
Protocol: as §1

[23] = molecular target: GCN2 domain2 (Homo sapiens (Human), UniProt Q9P2K8); conditions: H929 live cell
Protocol: as §1

[24] = molecular target: FRAP (Homo sapiens (Human), UniProt P42345); conditions: H929 live cell
Protocol: as §1

[25] = molecular target: MASTL (Homo sapiens (Human), UniProt Q96GX5); conditions: H929 live cell
Protocol: as §1

[26] = molecular target: MAP2K1 (Homo sapiens (Human), UniProt Q02750); conditions: H929 live cell
Protocol: as §1

[27] = molecular target: RSKL1 (Homo sapiens (Human), UniProt Q96S38); conditions: H929 live cell
Protocol: as §1

[28] = system: MAP3K2, MAP3K3; conditions: H929 live cell; for % inhibition: 10 μM, range class
Protocol: as §1

[29] = molecular target: PHKg2 (Homo sapiens (Human), UniProt P15735); conditions: H929 live cell
Protocol: as §1

[30] = system: ZC1/HGK, ZC2/TNIK, ZC3/MINK; conditions: H929 live cell; for % inhibition: 10 μM, range class
Protocol: as §1

[31] = molecular target: PKD3 (Homo sapiens (Human), UniProt O94806); conditions: H929 live cell
Protocol: as §1

[32] = system: MARK2, MARK3; conditions: H929 live cell; for % inhibition: 10 μM, range class
Protocol: as §1

[33] = molecular target: LATS1 (Homo sapiens (Human), UniProt O95835); conditions: H929 live cell
Protocol: as §1

[34] = range class, read-out: % inhibition

Chain of PHKg2 (P15735 whole entry): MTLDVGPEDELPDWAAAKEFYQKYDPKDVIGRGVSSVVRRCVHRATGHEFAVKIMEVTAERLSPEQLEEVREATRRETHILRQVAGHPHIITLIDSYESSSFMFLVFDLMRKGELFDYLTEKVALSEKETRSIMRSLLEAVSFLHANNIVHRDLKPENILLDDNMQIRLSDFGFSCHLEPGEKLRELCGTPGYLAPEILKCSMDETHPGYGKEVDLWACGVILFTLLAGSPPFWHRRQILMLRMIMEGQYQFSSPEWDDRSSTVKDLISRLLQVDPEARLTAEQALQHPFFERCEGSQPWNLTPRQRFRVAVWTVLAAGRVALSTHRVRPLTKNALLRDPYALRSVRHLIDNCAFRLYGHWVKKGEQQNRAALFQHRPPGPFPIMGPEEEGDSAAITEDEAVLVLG
Chain of EphB2 (P29323 19-1055): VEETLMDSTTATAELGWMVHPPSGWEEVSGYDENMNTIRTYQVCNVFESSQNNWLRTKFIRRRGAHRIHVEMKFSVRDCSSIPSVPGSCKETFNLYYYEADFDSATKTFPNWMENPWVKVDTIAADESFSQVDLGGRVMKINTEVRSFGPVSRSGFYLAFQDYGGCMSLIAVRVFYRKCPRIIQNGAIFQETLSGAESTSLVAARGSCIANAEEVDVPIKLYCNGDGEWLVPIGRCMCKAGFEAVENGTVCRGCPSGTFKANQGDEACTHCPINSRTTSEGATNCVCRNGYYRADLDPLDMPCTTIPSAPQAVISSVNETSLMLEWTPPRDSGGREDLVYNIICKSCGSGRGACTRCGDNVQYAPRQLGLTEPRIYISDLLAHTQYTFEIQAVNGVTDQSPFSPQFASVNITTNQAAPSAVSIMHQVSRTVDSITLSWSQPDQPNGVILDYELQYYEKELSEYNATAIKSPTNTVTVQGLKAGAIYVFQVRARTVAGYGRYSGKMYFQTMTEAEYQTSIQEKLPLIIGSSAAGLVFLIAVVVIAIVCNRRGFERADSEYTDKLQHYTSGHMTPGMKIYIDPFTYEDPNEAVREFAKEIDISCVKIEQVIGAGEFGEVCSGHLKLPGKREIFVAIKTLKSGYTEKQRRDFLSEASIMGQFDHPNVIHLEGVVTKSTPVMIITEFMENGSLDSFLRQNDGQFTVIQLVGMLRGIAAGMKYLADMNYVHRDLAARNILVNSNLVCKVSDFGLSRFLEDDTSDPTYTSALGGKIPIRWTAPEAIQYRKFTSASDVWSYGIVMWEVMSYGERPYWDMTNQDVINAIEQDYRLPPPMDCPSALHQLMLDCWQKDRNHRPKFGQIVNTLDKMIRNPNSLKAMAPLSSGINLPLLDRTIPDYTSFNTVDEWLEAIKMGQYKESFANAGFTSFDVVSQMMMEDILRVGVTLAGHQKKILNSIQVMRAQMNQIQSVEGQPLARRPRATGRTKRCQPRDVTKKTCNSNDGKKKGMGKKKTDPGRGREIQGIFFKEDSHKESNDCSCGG
Chain of FER (P16591 whole entry): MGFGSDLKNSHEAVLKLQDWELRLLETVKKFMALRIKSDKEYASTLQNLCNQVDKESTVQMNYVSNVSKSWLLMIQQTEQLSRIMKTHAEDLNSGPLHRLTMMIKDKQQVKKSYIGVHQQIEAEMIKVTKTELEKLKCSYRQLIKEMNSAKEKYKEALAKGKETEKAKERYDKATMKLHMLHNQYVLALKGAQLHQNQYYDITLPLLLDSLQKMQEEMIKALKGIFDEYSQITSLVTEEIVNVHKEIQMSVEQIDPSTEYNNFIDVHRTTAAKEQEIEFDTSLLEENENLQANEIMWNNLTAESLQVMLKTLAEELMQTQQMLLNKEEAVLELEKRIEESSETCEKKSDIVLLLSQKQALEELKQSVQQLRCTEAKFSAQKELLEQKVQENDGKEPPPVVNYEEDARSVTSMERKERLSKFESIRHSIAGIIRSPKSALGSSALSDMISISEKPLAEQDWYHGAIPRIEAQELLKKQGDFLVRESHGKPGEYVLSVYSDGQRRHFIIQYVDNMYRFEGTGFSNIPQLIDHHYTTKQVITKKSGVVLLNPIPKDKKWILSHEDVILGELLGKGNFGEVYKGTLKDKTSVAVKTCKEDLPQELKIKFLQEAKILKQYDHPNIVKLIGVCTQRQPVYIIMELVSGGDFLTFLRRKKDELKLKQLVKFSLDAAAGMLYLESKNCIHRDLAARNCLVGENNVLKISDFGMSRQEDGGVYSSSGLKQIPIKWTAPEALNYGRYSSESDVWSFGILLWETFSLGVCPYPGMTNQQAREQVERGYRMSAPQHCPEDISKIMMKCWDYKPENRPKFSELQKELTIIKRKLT
Chain of MASTL (Q96GX5 whole entry): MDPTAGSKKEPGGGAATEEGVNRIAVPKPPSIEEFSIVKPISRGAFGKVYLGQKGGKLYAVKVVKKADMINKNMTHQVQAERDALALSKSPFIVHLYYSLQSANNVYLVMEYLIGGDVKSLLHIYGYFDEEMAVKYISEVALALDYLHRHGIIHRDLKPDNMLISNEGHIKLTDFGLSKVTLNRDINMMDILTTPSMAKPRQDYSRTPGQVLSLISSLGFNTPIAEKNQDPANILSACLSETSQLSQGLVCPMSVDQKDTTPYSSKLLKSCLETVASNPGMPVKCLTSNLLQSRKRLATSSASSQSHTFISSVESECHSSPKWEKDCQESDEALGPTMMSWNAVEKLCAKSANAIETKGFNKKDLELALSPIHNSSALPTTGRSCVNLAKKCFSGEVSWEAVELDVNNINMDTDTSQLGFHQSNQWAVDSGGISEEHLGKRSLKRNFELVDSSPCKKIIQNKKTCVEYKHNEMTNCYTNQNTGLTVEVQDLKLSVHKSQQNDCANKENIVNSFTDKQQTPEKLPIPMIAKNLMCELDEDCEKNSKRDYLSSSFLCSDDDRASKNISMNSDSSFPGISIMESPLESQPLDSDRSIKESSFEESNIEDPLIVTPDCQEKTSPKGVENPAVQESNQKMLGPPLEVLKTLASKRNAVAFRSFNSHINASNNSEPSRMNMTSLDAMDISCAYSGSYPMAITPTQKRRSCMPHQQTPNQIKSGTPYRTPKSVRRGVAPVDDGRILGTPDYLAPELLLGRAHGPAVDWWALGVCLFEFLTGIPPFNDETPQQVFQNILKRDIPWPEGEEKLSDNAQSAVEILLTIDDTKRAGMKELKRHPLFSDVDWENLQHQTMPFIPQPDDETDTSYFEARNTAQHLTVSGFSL
Chain of MAP2K1 (Q02750 whole entry): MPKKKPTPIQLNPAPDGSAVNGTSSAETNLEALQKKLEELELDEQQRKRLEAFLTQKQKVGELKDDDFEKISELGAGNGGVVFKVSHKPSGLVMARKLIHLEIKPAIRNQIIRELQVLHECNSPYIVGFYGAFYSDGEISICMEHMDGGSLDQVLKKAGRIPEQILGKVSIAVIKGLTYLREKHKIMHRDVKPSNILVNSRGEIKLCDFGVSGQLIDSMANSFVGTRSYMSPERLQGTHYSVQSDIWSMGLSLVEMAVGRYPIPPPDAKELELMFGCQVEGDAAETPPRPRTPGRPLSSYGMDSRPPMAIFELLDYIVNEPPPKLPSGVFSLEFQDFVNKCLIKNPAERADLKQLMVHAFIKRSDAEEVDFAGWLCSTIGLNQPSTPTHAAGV
Chain of RSKL1 (Q96S38 whole entry): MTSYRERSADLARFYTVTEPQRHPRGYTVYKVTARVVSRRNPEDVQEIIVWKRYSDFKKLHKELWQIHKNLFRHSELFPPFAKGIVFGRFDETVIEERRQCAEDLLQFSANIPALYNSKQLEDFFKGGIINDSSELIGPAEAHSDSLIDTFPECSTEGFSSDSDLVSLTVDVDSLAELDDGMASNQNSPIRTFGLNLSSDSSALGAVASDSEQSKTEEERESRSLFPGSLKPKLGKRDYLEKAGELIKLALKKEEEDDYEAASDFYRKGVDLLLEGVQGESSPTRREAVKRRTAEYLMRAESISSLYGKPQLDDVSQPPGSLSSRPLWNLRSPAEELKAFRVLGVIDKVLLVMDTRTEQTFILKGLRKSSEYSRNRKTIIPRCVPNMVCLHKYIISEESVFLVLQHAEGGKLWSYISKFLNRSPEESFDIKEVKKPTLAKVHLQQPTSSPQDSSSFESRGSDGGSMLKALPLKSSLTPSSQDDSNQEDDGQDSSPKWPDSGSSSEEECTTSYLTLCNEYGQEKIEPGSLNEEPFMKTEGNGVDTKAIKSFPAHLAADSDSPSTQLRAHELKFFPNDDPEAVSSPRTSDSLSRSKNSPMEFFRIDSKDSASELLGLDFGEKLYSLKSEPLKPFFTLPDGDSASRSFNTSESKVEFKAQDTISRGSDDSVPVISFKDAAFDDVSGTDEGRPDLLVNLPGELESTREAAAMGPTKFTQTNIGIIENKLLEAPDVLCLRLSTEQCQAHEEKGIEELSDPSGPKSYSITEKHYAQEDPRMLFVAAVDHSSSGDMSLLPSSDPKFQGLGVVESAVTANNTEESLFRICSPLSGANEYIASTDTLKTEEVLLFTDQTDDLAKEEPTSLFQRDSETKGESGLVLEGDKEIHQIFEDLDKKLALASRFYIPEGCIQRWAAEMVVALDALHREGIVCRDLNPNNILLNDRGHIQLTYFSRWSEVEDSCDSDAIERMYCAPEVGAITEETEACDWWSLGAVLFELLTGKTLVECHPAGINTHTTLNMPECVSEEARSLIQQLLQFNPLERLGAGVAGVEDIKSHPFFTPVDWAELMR
Chain of CDC2 (P06493 whole entry): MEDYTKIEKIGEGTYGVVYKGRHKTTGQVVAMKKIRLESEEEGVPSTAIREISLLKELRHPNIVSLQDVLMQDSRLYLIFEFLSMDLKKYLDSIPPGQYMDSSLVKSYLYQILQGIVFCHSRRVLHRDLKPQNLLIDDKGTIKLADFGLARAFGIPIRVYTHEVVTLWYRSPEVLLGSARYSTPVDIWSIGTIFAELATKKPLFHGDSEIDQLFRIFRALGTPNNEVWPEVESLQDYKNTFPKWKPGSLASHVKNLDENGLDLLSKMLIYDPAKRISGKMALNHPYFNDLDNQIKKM

## Nc1ncc(-c2ccc(NS(=O)(=O)C3CC3)cc2F)cc1-c1ccc2c(c1)CCNC2=O [Compound I-51, N-(4-(6-amino-5-(1-oxo-1,2,3,4-tetrahydroisoquinolin-6-yl)pyridin-3-yl)-3-fluorophenyl) cyclopropanesulfonamide]
[1]; [34]
  inhibition at 10 µM: 0%
[1]; read-out: inhibition (10 μM)
  inhibition at 10 µM: -26.2%
[2]; [34]
  inhibition at 10 µM: 0%
[2]; read-out: inhibition (10 μM)
  inhibition at 10 µM: 2.1%
[3]; [34]
  inhibition at 10 µM: 0%
[3]; read-out: inhibition (10 μM)
  inhibition at 10 µM: 7.7%
[4]; [34]
  inhibition at 10 µM: 35 to 40%
[4]; read-out: inhibition (10 μM)
  inhibition at 10 µM: 43.9%
[5]
  % inhibition: 50-75%
  inhibition (10 μM): 53.2%
[6]; [34]
  inhibition at 10 µM: 75 to 90%
[6]; read-out: inhibition (10 μM)
  inhibition at 10 µM: 88.2%
[7]; [34]
  inhibition at 10 µM: 0%
[7]; read-out: inhibition (10 μM)
  inhibition at 10 µM: 8.8%
[8]; [34]
  inhibition at 10 µM: 0%
[8]; read-out: inhibition (10 μM)
  inhibition at 10 µM: -20.1%
[9]; [34]
  inhibition at 10 µM: 0%
[9]; read-out: inhibition (10 μM)
  inhibition at 10 µM: -41.8%
[10]; [34]
  inhibition at 10 µM: 0%
[10]; read-out: inhibition (10 μM)
  inhibition at 10 µM: 11%
[11]; [34]
  inhibition at 10 µM: > 90%
[11]; read-out: inhibition (10 μM)
  inhibition at 10 µM: 96.9%
[12]; [34]
  inhibition at 10 µM: 0%
[12]; read-out: inhibition (10 μM)
  inhibition at 10 µM: -13%
[13]; [34]
  inhibition at 10 µM: 0%
[13]; read-out: inhibition (10 μM)
  inhibition at 10 µM: -21.9%
[14]; [34]
  inhibition at 10 µM: 0%
[14]; read-out: inhibition (10 μM)
  inhibition at 10 µM: -17.3%
[15]; [34]
  inhibition at 10 µM: 0%
[15]; read-out: inhibition (10 μM)
  inhibition at 10 µM: 3.8%
[16]; [34]
  inhibition at 10 µM: 0%
[16]; read-out: inhibition (10 μM)
  inhibition at 10 µM: -5.1%
[17]
  % inhibition: 0.0%
  inhibition (10 μM): −65.2%
[18]; [34]
  inhibition at 10 µM: 35 to 40%
[18]; read-out: inhibition (10 μM)
  inhibition at 10 µM: 35.8%
[19]; [34]
  inhibition at 10 µM: 0%
[19]; read-out: inhibition (10 μM)
  inhibition at 10 µM: -16.5%
[20]; [34]
  inhibition at 10 µM: 0%
[20]; read-out: inhibition (10 μM)
  inhibition at 10 µM: 26.3%
[21]; [34]
  inhibition at 10 µM: 0%
[21]; read-out: inhibition (10 μM)
  inhibition at 10 µM: 13.4%
[22]; [34]
  inhibition at 10 µM: 0%
[22]; read-out: inhibition (10 μM)
  inhibition at 10 µM: 18.5%
[23]; [34]
  inhibition at 10 µM: 0%
[23]; read-out: inhibition (10 μM)
  inhibition at 10 µM: -5.1%
[24]; [34]
  inhibition at 10 µM: 0%
[24]; read-out: inhibition (10 μM)
  inhibition at 10 µM: 25.1%
[25]; [34]
  inhibition at 10 µM: 0%
[25]; read-out: inhibition (10 μM)
  inhibition at 10 µM: 14.6%
[26]; [34]
  inhibition at 10 µM: 0%
[26]; read-out: inhibition (10 μM)
  inhibition at 10 µM: -26.2%
[27]; [34]
  inhibition at 10 µM: 0%
[27]; read-out: inhibition (10 μM)
  inhibition at 10 µM: -22.1%
[28]
  % inhibition: 0.0%
  inhibition (10 μM): 26.7%
[29]; [34]
  inhibition at 10 µM: 0%
[29]; read-out: inhibition (10 μM)
  inhibition at 10 µM: -45.4%
[30]
  % inhibition: >90%
  inhibition (10 μM): 97.2%
[31]; [34]
  inhibition at 10 µM: 50 to 75%
[31]; read-out: inhibition (10 μM)
  inhibition at 10 µM: 74.8%
[32]
  % inhibition: 0.0%
  inhibition (10 μM): 14.9%
[33]; [34]
  inhibition at 10 µM: 0%
[33]; read-out: inhibition (10 μM)
  inhibition at 10 µM: 3.9%

## Nc1ncc(-c2ccc(NS(=O)(=O)C3CC3)cc2OC2CCCCC2)cc1-c1ccc2c(c1)CCNC2=O [Compound I-65, N-(4-(6-amino-5-(1-oxo-1,2,3,4-tetrahydroisoquinolin-6-yl)pyridin-3-yl)-3-(cyclohexyloxy)phenyl) cyclopropanesulfonamide]
[1]; [34]
  inhibition at 10 µM: 0%
[1]; read-out: inhibition (10 μM)
  inhibition at 10 µM: 1.1%
[2]; [34]
  inhibition at 10 µM: 0%
[2]; read-out: inhibition (10 μM)
  inhibition at 10 µM: -12.4%
[3]; [34]
  inhibition at 10 µM: 0%
[3]; read-out: inhibition (10 μM)
  inhibition at 10 µM: -21.7%
[4]; [34]
  inhibition at 10 µM: 50 to 75%
[4]; read-out: inhibition (10 μM)
  inhibition at 10 µM: 72.8%
[5]
  % inhibition: 35-40%
  inhibition (10 μM): 42.9%
[6]; [34]
  inhibition at 10 µM: 75 to 90%
[6]; read-out: inhibition (10 μM)
  inhibition at 10 µM: 87.2%
[7]; [34]
  inhibition at 10 µM: 0%
[7]; read-out: inhibition (10 μM)
  inhibition at 10 µM: 20.3%
[8]; [34]
  inhibition at 10 µM: 0%
[8]; read-out: inhibition (10 μM)
  inhibition at 10 µM: -16%
[9]; [34]
  inhibition at 10 µM: 0%
[9]; read-out: inhibition (10 μM)
  inhibition at 10 µM: -41.5%
[10]; [34]
  inhibition at 10 µM: 0%
[10]; read-out: inhibition (10 μM)
  inhibition at 10 µM: -0.7%
[11]; [34]
  inhibition at 10 µM: > 90%
[11]; read-out: inhibition (10 μM)
  inhibition at 10 µM: 98.7%
[12]; [34]
  inhibition at 10 µM: 0%
[12]; read-out: inhibition (10 μM)
  inhibition at 10 µM: -18.4%
[13]; [34]
  inhibition at 10 µM: 0%
[13]; read-out: inhibition (10 μM)
  inhibition at 10 µM: -1.3%
[14]; [34]
  inhibition at 10 µM: 0%
[14]; read-out: inhibition (10 μM)
  inhibition at 10 µM: -34.3%
[15]; [34]
  inhibition at 10 µM: 0%
[15]; read-out: inhibition (10 μM)
  inhibition at 10 µM: -7.6%
[16]; [34]
  inhibition at 10 µM: 0%
[16]; read-out: inhibition (10 μM)
  inhibition at 10 µM: 3.9%
[17]
  % inhibition: 0.0%
  inhibition (10 μM): −52.2%
[18]; [34]
  inhibition at 10 µM: 50 to 75%
[18]; read-out: inhibition (10 μM)
  inhibition at 10 µM: 74.6%
[19]; [34]
  inhibition at 10 µM: 0%
[19]; read-out: inhibition (10 μM)
  inhibition at 10 µM: -4.6%
[20]; [34]
  inhibition at 10 µM: 0%
[20]; read-out: inhibition (10 μM)
  inhibition at 10 µM: 13.5%
[21]; [34]
  inhibition at 10 µM: 50 to 75%
[21]; read-out: inhibition (10 μM)
  inhibition at 10 µM: 63.6%
[22]; [34]
  inhibition at 10 µM: 0%
[22]; read-out: inhibition (10 μM)
  inhibition at 10 µM: -0.5%
[23]; [34]
  inhibition at 10 µM: 35 to 40%
[23]; read-out: inhibition (10 μM)
  inhibition at 10 µM: 43.5%
[24]; [34]
  inhibition at 10 µM: 35 to 40%
[24]; read-out: inhibition (10 μM)
  inhibition at 10 µM: 47.9%
[25]; [34]
  inhibition at 10 µM: 0%
[25]; read-out: inhibition (10 μM)
  inhibition at 10 µM: -9.6%
[26]; [34]
  inhibition at 10 µM: 0%
[26]; read-out: inhibition (10 μM)
  inhibition at 10 µM: 21.2%
[27]; [34]
  inhibition at 10 µM: 0%
[27]; read-out: inhibition (10 μM)
  inhibition at 10 µM: -10.6%
[28]
  % inhibition: 0.0%
  inhibition (10 μM): 23.3%
[29]; [34]
  inhibition at 10 µM: 0%
[29]; read-out: inhibition (10 μM)
  inhibition at 10 µM: -64%
[30]
  % inhibition: >90%
  inhibition (10 μM): 96.6%
[31]; [34]
  inhibition at 10 µM: 0%
[31]; read-out: inhibition (10 μM)
  inhibition at 10 µM: -24.2%
[32]
  % inhibition: 0.0%
  inhibition (10 μM): −17.2%
[33]; [34]
  inhibition at 10 µM: 0%
[33]; read-out: inhibition (10 μM)
  inhibition at 10 µM: 33.8%
